pIC50: −log10 of the molar value. Values joined by “and” are separate entries in the source; they are usually repeats but may differ in a detail not shown here. Equal values may be shown once.
Assays:
Type in all cases: biochemical
Lyn kinase (human) = target: T1, Lyn kinase (human) (Homo sapiens, UniProt P07948); assay: Lyn Kinase Assay (h); conditions: for pIC50: (h) human Lyn, 5 μM ATP; for inhibition at 1 µM: test concentration (1) 1 μM
T1 construct: purchased Upstate Biotechnology, Lake Placid, N.Y
Protocol: A mixture of a 10× kinase buffer (500 mM MOPS at pH 7.5, 1 mM EGTA, 1 mM Sodium Vanadate, 1% β-mercaptoethanol and 100 mM Magnesium Acetate), ATP (5 μM final from a 10 mM stock), polyGluTyr (0.1 mg/mL final from a 1 mg/mL stock), γ-^33P ATP (10 μCi/μL stock) and water (20 μL/well) was added to each well of a Streptavidin Flashplate.
Test compound in 100% DMSO (0.5 μL) was added to the appropriate wells. Diluted Lyn kinase (human) (Upstate Biotechnology, Lake Placid, N.Y.) (diluted in a buffer consisting of 50 mM Tris at pH 7.5, 0.1 mM EGTA, Sodium Vanadate (0.1 mM), β-mercaptoethanol (0.1%) and 1 mg/mL bovine serum albumin) (2.5 μL) was added to the wells to initiate the reactions.
The reaction plates were incubated at 30° C. for 40 min. The reaction was terminated by the addition of a 3% phosphoric acid solution (5 μL). The reaction product (10 μL) was spotted onto a P30 filtermat and washed for 5 minutes in phosphoric acid (75 mM). The wash sequence was repeated two more times, followed with one final wash in methanol. The plates were then dried, sealed and read on the TopCount scintillation counter after adding 30 μL scintillation fluid.
The percent inhibitions and IC50 values were derived according to the procedure described in Example 52. For those compounds without an IC50, the percent inhibition results are shown at a test concentration of ^(1) 1 μM or ^(2) 1.6 μM.

LYN (m) = LYN (m) (Mus musculus, UniProt P25911); assay: Lyn Kinase Assay (m); conditions: for inhibition at 1 µM: test concentration (1) 1 μM, read-out: LYN percent inhibition (m)
c-Src kinase (human) = target: T2, c-Src kinase (human) (Homo sapiens, UniProt P12931); assay: c-Src Kinase Assay; conditions: for pIC50: human c-Src, 5 μM ATP; for inhibition at 1 µM: test concentration (1) 1 μM, read-out: c-SRC percent inhibition
T2 construct: purchased Upstate Biotechnology, Lake Placid, N.Y
Protocol: […] a 10× kinase buffer (80 mM MOPS at pH 7.0, 2 mM EDTA and 100 mM Magnesium Chloride), ATP (5 μM final from a 10 mM stock), a Cdc2 peptide KVEKIGEGTYGVVYK (100 μM final from a 2.5 mM stock), γ-^33P ATP (10 μCi/μL stock) and water (20 μL/well) was added to each well of a Streptavidin Flashplate.
Test compound in 100% DMSO (0.5 μL) was added to the appropriate wells. Diluted c-Src kinase (human) (Upstate Biotechnology, Lake Placid, N.Y.) (diluted in a buffer consisting of 20 mM MOPS at pH 7.0, 1 mM EDTA, β-mercaptoethanol (0.1%), Brij-35 (0.01%), glycerol (5%), and 1 mg/mL bovine serum albumin) (2.5 μL) was added to the wells to initiate the reactions. The reaction plates were incubated at 30° C. for 40 min. The reaction was terminated by the addition of a 3% phosphoric acid solution (5 μL). The reaction product (10 μL) was spotted onto a P30 filtermat and washed for 5 minutes in phosphoric acid (75 mM). The wash sequence was repeated two more times, followed with one final wash in methanol. The plates were then dried, sealed and read on the TopCount scintillation counter after adding 30 μL scintillation fluid.
The percent inhibitions and IC50 values were derived according to the procedure described in Example 52. For those compounds without an IC50, the percent inhibition results are shown at a test concentration of ^(1)1 μM or ^(2)1.6 μM.

EGFR = target: T3, EGFR (Homo sapiens, UniProt P00533); assay: EGFR Kinase Assay (GST-EGFR, 33P-ATP, Streptavidin Flashplate); conditions: for pIC50: GST-EGFR intracellular portion, 5 μM ATP
T3 construct: started at nucleotide 2189 (corresponding to amino acid 667) and ended at the termination codon; made in house; host or cells: Sf9 insect cells (baculovirus)
Text: The EGFR kinase used was a fusion of Glutathione-S-Transferase (GST) and a PCR amplified intracellular portion of EGFR (NM_005228). The intracellular portion of EGFR started at nucleotide 2189 (corresponding to amino acid 667) and ended at the termination codon. The portion was PCR amplified with primers that added the lambda attB sequences to each end, recombined into an entry vector, then into a GST destination vector (as described in Gateway Technologies Manual by Invitrogen Corporation, Carlsbad, Calif.).
The destination vector was recombined in the DH10BAC strain of bacteria to produce a bacmid. The bacmid was transfected into Sf 9 cells and the supernatant containing the baculovirus was collected. The GSTEGFR protein was purified using large cultures of Sf 9 cells infected with stock virus. After an appropriate period of time, the cells were collected and lysed. The GSTEGFR was then purified from the lysate on Glutathione-Sepharose columns (as described by Amersham Biosciences, Buckinghamshire, United Kingdom).
The EGFR substrate was prepared by biotinylating polyGluTyr (128 mg) (Sigma, St. Louis, Mo.) in a 1×PBS buffer incubated together with a 12-fold molar excess of Sulfo-NHS-LC-Biotin on ice for at least 2 hrs. The free biotin was separated from the biotinylated polyGluTyr on a gel filtration column.
A mixture of a 10× kinase buffer (500 mM Tris at pH 8.0, 100 mM Magnesium Chloride and 1 mM Sodium Vanadate), DTT (1 mM final from 500 mM stock), ATP (5 μM final from 10 mM stock), biotinylated polyGluTyr (10 μg/μL stock), γ-^33P ATP (10 μCi/μL stock) and water was added to each well (90 μL/well) of a Streptavidin Flashplate (Perkin Elmer, Wellesley, Mass.).
Test compound in 100% DMSO (2 μL) was added to the appropriate wells. Diluted GSTEGFR (1:300 dilution in 50 mM Tris at pH 8.0 and 0.1% bovine serum albumin) (10 μL) was added to the wells to initiate the reactions.
The plates were incubated at 30° C. for 1 hr with shaking. The reacted contents were removed and the plates were sequentially washed three times with a 1×PBS stop buffer (300 μL without Magnesium and Calcium) and 100 mM EDTA. After the final wash, the same stop buffer (200 μL) was added to the wells. The plates were then sealed and read on the TopCount scintillation counter.
Test compounds were assayed in triplicate at 16 concentrations at half-log dilutions starting at 200 uM. A maximum and minimum signal for the assay was determined on each plate. The percent inhibition of a test compound was calculated accord to the formula
For a series of test concentrations, the IC50 was derived by graphing percent inhibition against the log of the concentrations tested for a given compound. For those compounds without an IC50, the percent inhibition results are shown at a test concentration of 2 μM.

HER-2 = target: T4, HER-2 (Homo sapiens, UniProt P04626); assay: HER-2 Kinase Assay; conditions: GST-HER2 kinase, 1 μM ATP
T4 construct: the nucleotides encoding amino acids 679 to 1255 of HER-2; HIS6 with thrombin site (N); purchased Proqinase (Freiburg, Germany)
Protocol: The HER-2 kinase used was purified at Proqinase (Freiburg, Germany) from a construct that consisted of a fusion of GST (Glutathione-S-Transferase), HIS6-Thrombin and the nucleotides encoding amino acids 679 to 1255 of HER-2.
A mixture of a 10× kinase reaction buffer (600 mM Hepes at pH 7.5, 30 mM Magnesium Chloride, 0.03 mM Sodium Vanadate and 500 μg/mL PEG 20,000), DTT (1.2 mM final from a 10 mM stock), ATP (1 μM from a 10 mM stock), biotinylated polyGluTyr (1.5 ng/μL final from stock of 1 μg/μL prepared by Upstate Biotechnologies, Lake Placid, N.Y.), Manganese Chloride (3 mM final from a 1 M stock), γy-^33P-ATP (10 μCi/μL stock) and water (70 μL/well) was added to each well of a Streptavidin Flashplate (Cat. # SMP103, NEN, Boston, Mass.).
Test compound stock (1 μL) was added to the appropriate wells. Diluted GSTHER2 kinase (6.7 ng/μL diluted into 50 mM Tris-HCl at pH 8.0 and 0.1% bovine serum albumin) (30 μL) was added (total volume of 200 ng/well) to initiate the reactions.
The reaction plates were incubated at 30° C. for 1 hr. The reaction was terminated by aspirating the reaction mixture from the plate wells and washing the wells three times with a 1×PBS stop buffer (300 μL) and 100 mM EDTA. After the final wash, the same stop buffer (200 μL) was again added to the wells. The plates were then sealed and read on the TopCount scintillation counter.
The IC50 was derived according to the procedure described in Example 52. For those compounds without an IC50, the percent inhibition results are shown at a test concentration of 1 μM.

[1] = (h), read-out: LYN percent inhibition (h)

T3 sequence (P00533 667-1210 limits assumed): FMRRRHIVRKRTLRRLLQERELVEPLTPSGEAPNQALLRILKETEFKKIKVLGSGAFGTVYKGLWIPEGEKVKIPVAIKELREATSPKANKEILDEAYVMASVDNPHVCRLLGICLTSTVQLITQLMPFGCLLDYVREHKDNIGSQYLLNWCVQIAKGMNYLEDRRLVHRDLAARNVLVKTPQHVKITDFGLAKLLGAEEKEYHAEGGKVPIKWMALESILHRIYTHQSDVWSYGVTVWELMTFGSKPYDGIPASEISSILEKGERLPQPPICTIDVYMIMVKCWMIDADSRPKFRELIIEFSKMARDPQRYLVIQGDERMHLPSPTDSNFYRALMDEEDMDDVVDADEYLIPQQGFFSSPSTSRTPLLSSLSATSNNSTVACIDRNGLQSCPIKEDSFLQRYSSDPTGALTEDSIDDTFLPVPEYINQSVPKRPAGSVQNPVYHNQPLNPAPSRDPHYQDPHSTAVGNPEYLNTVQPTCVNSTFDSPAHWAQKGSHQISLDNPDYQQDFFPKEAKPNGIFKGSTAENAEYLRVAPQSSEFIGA
T2 sequence (P12931 whole entry): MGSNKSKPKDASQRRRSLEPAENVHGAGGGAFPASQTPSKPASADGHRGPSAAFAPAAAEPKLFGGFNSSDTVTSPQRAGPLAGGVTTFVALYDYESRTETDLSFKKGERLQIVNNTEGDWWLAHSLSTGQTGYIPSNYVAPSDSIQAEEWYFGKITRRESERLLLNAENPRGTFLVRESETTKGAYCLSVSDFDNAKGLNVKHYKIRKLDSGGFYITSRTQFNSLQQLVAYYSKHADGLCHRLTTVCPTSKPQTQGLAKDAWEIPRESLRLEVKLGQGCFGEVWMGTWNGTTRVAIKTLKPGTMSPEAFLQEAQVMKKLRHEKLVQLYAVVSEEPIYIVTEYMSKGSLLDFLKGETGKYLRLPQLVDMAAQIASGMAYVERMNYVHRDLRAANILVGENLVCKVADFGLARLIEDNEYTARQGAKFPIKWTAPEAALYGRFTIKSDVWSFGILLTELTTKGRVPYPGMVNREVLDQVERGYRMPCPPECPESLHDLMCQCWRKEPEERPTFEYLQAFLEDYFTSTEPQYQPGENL
T1 sequence (P07948 whole entry): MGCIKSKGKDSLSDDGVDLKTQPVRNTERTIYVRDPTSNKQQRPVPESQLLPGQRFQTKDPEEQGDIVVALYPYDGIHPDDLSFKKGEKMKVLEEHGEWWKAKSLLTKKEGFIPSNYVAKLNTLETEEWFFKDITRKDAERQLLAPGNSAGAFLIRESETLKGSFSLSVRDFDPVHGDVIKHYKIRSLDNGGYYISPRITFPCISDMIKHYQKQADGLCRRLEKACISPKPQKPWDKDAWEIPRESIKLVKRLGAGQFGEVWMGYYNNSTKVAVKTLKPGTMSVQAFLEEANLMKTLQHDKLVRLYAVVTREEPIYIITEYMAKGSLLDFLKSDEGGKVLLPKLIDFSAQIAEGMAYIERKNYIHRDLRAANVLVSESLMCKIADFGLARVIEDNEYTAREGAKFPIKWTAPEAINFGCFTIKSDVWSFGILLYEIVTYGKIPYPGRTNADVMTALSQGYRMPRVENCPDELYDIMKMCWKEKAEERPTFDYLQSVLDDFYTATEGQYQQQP
Chain of LYN (m) (P25911 whole entry): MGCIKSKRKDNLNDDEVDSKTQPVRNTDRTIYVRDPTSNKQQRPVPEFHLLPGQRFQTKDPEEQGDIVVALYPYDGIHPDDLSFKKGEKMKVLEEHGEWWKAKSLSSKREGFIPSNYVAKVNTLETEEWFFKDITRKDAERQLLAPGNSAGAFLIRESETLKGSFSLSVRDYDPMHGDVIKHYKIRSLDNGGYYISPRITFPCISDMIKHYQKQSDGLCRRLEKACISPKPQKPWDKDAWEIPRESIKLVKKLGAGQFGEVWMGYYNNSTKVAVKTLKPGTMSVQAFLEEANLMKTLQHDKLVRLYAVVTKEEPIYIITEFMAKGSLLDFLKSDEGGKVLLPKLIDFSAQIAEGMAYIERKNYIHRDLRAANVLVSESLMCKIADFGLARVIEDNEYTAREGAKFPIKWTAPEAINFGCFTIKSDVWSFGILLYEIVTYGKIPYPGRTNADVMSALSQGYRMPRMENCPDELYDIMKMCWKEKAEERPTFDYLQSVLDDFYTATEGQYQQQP
T4 sequence (P04626 679-1255): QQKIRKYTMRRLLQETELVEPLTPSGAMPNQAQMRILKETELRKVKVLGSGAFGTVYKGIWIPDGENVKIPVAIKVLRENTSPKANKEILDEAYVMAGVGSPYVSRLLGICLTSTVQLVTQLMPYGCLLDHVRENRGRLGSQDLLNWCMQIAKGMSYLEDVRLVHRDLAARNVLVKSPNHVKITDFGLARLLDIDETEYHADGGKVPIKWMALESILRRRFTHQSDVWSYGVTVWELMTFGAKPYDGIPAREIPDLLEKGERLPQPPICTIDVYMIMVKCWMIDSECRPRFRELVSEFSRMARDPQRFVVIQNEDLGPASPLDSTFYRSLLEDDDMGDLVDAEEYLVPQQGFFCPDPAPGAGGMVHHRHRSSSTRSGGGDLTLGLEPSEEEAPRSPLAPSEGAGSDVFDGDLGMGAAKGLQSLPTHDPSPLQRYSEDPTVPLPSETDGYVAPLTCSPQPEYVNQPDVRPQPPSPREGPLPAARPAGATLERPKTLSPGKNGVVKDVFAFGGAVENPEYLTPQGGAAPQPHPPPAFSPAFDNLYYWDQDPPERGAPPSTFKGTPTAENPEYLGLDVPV

Row | pIC50 (Lyn kinase (human)) | pIC50 (LYN (m)) | pIC50 (c-Src kinase (human)) | pIC50 (EGFR) | inhibition at 1 µM (Lyn kinase (human); [1]) [%] | inhibition at 1 µM (LYN (m)) [%] | inhibition at 1 µM (c-Src kinase (human)) [%] | pIC50 (HER-2) | inhibition at 1.6 µM (Lyn kinase (human); (h), test concentration (2) 1.6 μM, read-out: LYN percent inhibition (h)) [%] | c-SRC percent inhibition (c-Src kinase (human); test concentration not marked (1 μM or 1.6 μM)) [%] | inhibition at 2 µM (EGFR; test concentration of 2 μM, read-out: EGFR percent inhibition) [%] | Structure (SMILES)
1 | 7.96 | 8.05 | 7.96 | 6.42 and 6.03 | – | – | – | – | – | – | – | N#Cc1cnc2nc(Nc3ccc(CN4CCOCC4)cc3)sc2c1Nc1c(Cl)ccc2c1OCO2 [Cpd 20, 7-(5-chloro-benzo[1,3]dioxol-4-ylamino)-2-(4-morpholin-4-ylmethyl-phenylamino)-thiazolo[4,5-b]pyridine-6-carbonitrile]
2 | – | – | – | 7.69 | 8 | 42 | -2 | – | – | – | – | C#Cc1cccc(Nc2c(C#N)cnc3nc(Nc4ccc(S(=O)(=O)NCCCN(C)C)cc4)sc23)c1 [Cpd 23, 4-[6-cyano-7-(3-ethynyl-phenylamino)-thiazolo[4,5-b]pyridin-2-ylamino]-N-(3-dimethylamino-propyl)-benzenesulfonamide]
3 | – | – | – | 7.48 | -5 | 10 | 15 | 5.69 | – | – | – | N#Cc1cnc2nc(Nc3ccc(CN4CCCC4)cc3)sc2c1Nc1ccc(OCc2cccc(F)c2)c(Cl)c1 [Cpd 24, 7-[3-chloro-4-(3-fluoro-benzyloxy)-phenylamino]-2-(4-pyrrolidin-1-ylmethyl-phenylamino)-thiazolo[4,5-b]pyridine-6-carbonitrile]
4 | 6.65 | 6.10 | 5.85 | 7.36 | – | – | – | 4.03 | – | – | – | CN(C)Cc1ccc(Nc2nc3ncc(C#N)c(Nc4cccc5c4OC(F)(F)O5)c3s2)cc1 [Cpd 25, 7-(2,2-difluoro-benzo[1,3]dioxol-4-ylamino)-2-(4-dimethylaminomethyl-phenylamino)-thiazolo[4,5-b]pyridine-6-carbonitrile]
5 | – | – | – | – | – | – | – | < 4.00 | 37 | 0 | 0 | CN1CCN(Cc2ccc(Nc3nc4ncc(C#N)c(Nc5ccc(Oc6ccccc6)cc5)c4s3)cc2)CC1 [Cpd 51, 2-[4-(4-methyl-piperazin-1-ylmethyl)-phenylamino]-7-(4-phenoxy-phenylamino)-thiazolo[4,5-b]pyridine-6-carbonitrile]

— US7659284B2, “Thiazolopyridine kinase inhibitors” (Janssen Pharmaceutica NV, priority 2004, dated 2010)
